Laboratory results: PMC3121703, “Inhibitory activity of 9-phenylcyclohepta[d]pyrimidinedione derivatives against different strains of HIV-1 as non-nucleoside reverse transcriptase inhibitors” (Virology Journal, 2011)
Read-outs that look alike come from different tables or passages of the source.

Assays:
HIV-1SF33 = experiment: Time-of-addition assay; type: cell-based; conditions: for Antiviral activity in time-of-addition assay: added eight hours post-infection, BmPCP 13.3 μM, NVP 5 μM
Procedure: Figure 2 Time-of-addition assay of compounds. TZM-bl cells were infected with HIV-1SF33 at 200 TCID50.
MT4 cells were seeded at 10^4/well and cultured in a 96-well tissue culture plate overnight, followed by addition of 200 TCID50 of HIV-1SF33. […] HIV-1 p24 was measured using a commercial enzyme-linked immunosorbent assay (ELISA) kit (Vironostika HIV-1 Microelisa system; BioMérieux; Marcy l'Etoile, France).

HIV-1 SF33 [1] = experiment: HIV-1 inhibition assay, PBMCs, p24 ELISA; type: cell-based; conditions: for IC50: Human immunodeficiency virus 1, PBMC
Procedure: (§1) The inhibitory activity of BmPCP, APCP, BPCP and EPCP on infection by laboratory-adapted HIV-1 strains was tested in TZM-bl cells, MT4 cells or PBMCs, respectively, as previously described. TZM-bl cells were seeded at 10^4/well and cultured in a 96-well tissue culture plate overnight, followed by addition of 200 TCID50 (50% Tissue Culture Infective Dose) of HIV-1 virus. After incubation at 37°C for 2 hrs, BmPCP at graded concentrations was added. After further incubation at 37°C for 48 hrs, the luciferase activity was measured using a luciferase assay kit (Promega Corp.) according to the manufacturer's instructions. MT4 cells (4 × 10^4/well) and PBMCs (1 × 10^5/well) were infected by addition of 200 TCID50 of HIV-1 virus, followed by incubation for 2 hrs at 37°C before addition of BmPCP at serial dilutions. After further incubation at 37°C for 4 days (for MT4 cells) or 7 days (for PBMCs), HIV-1 p24 was measured using a commercial enzyme-linked immunosorbent assay (ELISA) kit (Vironostika HIV-1 Microelisa system; BioMérieux; Marcy l'Etoile, France). The inhibitory activity of BmPCP on infection by primary HIV-1 isolates was also tested in PBMCs as described above. The percent of inhibition and the IC50 were calculated as previously described.

HIV-1 1617-1 = experiment: microbe, parasite or virus in culture; type: cell-based
Procedure: We tested the antiviral activity of BmPCP in three cells including peripheral blood mononuclear cells (PBMCs), TZM-b1 and MT4 cells by using HIV-1SF33 and HIV-1 1617-1, a variant bearing K70G, 184V, 75I, 77L, I16Y and I51M mutations, which are resistant to NRTIs (e.g., d4T, DDI and AZT).
as §1

HIV-1 SF33 [2] = experiment: HIV-1 inhibition assay, MT4 cells, p24 ELISA; type: cell-based; conditions: for IC50: Human immunodeficiency virus 1
Procedure: as §1

HIV-1 AH259 = experiment: Primary HIV-1 isolate inhibition in PBMCs; type: cell-based; conditions: primary isolate AH259, subtype B', R5, PBMCs; for IC50: Human immunodeficiency virus 1, PBMC
Procedure: (§2) HIV-1CRF07_BC and B' (Thailand B, a kind variant of subtype B) are two epidemic strains in China. Furthermore, to verify the antiviral activity on China clinical isolates, CRF07_BC and B' were chosen.
as §1

HIV-1 XJ0793 = experiment: Primary HIV-1 isolate inhibition in PBMCs; type: cell-based; conditions: primary isolate XJ0793, subtype B'/C, R5, PBMCs; for IC50: Human immunodeficiency virus 1, PBMC
Procedure: as §2, §1

HIV-1 AH968 = experiment: Primary HIV-1 isolate inhibition in PBMCs; type: cell-based; conditions: primary isolate AH968, subtype B', R5, PBMCs; for IC50: Human immunodeficiency virus 1, PBMC
Procedure: as §2, §1

HIV-1 XJ257 = experiment: Primary HIV-1 isolate inhibition in PBMCs; type: cell-based; conditions: primary isolate XJ257, subtype B'/C, R5, PBMCs; for IC50: Human immunodeficiency virus 1, PBMC
Procedure: as §2, §1

HIV-1 XJ6291 = experiment: Primary HIV-1 isolate inhibition in PBMCs; type: cell-based; conditions: for IC50: Human immunodeficiency virus 1, PBMC
Procedure: as §2, §1

HIV-1 AH104 = experiment: Primary HIV-1 isolate inhibition in PBMCs; type: cell-based; conditions: Human immunodeficiency virus 1, PBMC; primary isolate AH104, subtype B', X4/R5, PBMCs
Procedure: as §2, §1

HIV-1 SF33 [3] = experiment: HIV-1 inhibition assay, TZM-bl cells, luciferase; type: cell-based; conditions: for IC50: Human immunodeficiency virus 1
Procedure: as §1

XTT cytotoxicity assay = type: cell-based; conditions: human
Procedure: (§3) XTT assay was used to test the cytotoxicity of BmPCP on MT4 cells, human PBMCs (non-stimulated) and TZM-bl cells.
(§4) An XTT assay, as previously described, was used for assessing the cytotoxicity of BmPCP to the cells tested for anti-HIV-1 activity. Briefly, BmPCP at graded concentrations was added to MT4 cells, PBMCs, and TZM-bl cells at 4 × 10^4, 1 × 10^5 and 1 × 10^4 cells per well, respectively, followed by an incubation at 37°C for 3 days. Ten microliters of CCK-8 reagent was added to the cells. After incubation at 37°C, for 4 h to allow color development of the XTT formazan product, the absorbance of each well was then read at 450 nm in a Victor2 1420 Multilabel Counter (Wallace-PerkinElmer Life and Analytical Sciences Inc., Boston, MA). The percent of cytotoxicity and CC50 were calculated as previously described.

[4] = XTT cytotoxicity assay, summary over cells; type: cell-based; conditions: human, human PBMCs (non-stimulated) and TZM-bl cells, MT4, PBMCs and TZM-bl cells, read-out: CC50, range
Procedure: as §3, §4

[5] = target: HIV-1 reverse transcriptase (Human immunodeficiency virus type 1 group M subtype B, UniProt P04585); experiment: ELISA RT assay for inhibition of HIV-1 reverse transcriptase activity
From the text: Oligo(dT) 15 was immobilized via its 5'-terminal phosphate to Covalink-NH microtiter plates. The biotin-dUTP was incorporated by reverse transcriptase. The products were detected and quantified using a colorimetric strep- tavidin-alkaline phosphatase reporter system.
Briefly, Oligo(dT) 15 was immobilized via its 5'-terminal phosphate to CovaLink NH microtiter plates. The biotin-dUTP was incorporated by reverse transcriptase. The products were detected and quantified using a colorimetric streptavidin alkaline phosphatase reporter system.

MT4 cells = experiment: XTT cytotoxicity assay; type: cell-based
Procedure: as §3, §4

TZM-bl cells = experiment: XTT cytotoxicity assay; type: cell-based
Procedure: as §3, §4

HIV-1 = HIV-1 inhibition assays, summary over strains and cells; type: cell-based; conditions: broad spectrum of HIV-1 strains incl. Chinese clinical isolates
Procedure: as §1

[6] = Human immunodeficiency virus 1, MT4
[7] = Human immunodeficiency virus 1, PBMC
[8] = Human immunodeficiency virus 1, TZM-bl

Row | Compound | Antiviral activity in time-of-addition assay (HIV-1SF33) | IC50 (HIV-1 SF33 [1]) [nM] | IC50 (HIV-1 1617-1; [6]) [nM] | IC50 (HIV-1 1617-1; [7]) [nM] | IC50 (HIV-1 1617-1; [8]) [nM] | IC50 (HIV-1 SF33 [2]) [nM] | IC50 (HIV-1 AH259) [nM] | IC50 (HIV-1 XJ0793) [nM] | IC50 (HIV-1 AH968) [nM] | IC50 (HIV-1 XJ257) [nM] | IC50 (HIV-1 AH104) [nM] | IC50 (HIV-1 SF33 [3]) [nM] | CC50 at 3 days (XTT cytotoxicity assay; MT4 cells) [nM] | CC50 at 3 days (XTT cytotoxicity assay; TZM-bl cells) [nM] | SI (Selectivity index = CC50/IC50) (HIV-1 SF33 [2]) | SI (Selectivity index = CC50/IC50) (HIV-1 SF33 [3]) | other results
1 | Cc1ccnc2c1NC(=O)c1cccnc1N2C1CC1 [NVP, nevirapine, reference compound] | demonstrated antiviral activity | 690 ± 70 | 440 ± 120 | 570 ± 80 | 160 ± 100 | 650 ± 230 | 7 ± 1 | 79 ± 97 | 58 ± 60 | 211 ± 120 | 7 ± 3 | 190 ± 20 |  |  |  |  | IC50 (HIV-1 XJ6291; primary isolate XJ6291, subtype B'/C, R5, PBMCs, read-out: IC50): 186 ± 224 nM
2 | C=CCn1c2c(c(=O)[nH]c1=O)CCCCC2c1ccccc1 (stereo not drawn) [APCP] |  |  |  |  |  | 28600 |  |  |  |  |  | 1300 | 62000 | 50000 | 2.17 | 38.46 | 
3 | CCOCn1c2c(c(=O)[nH]c1=O)CCCCC2c1ccccc1 (stereo not drawn) [EPCP] |  |  |  |  |  | 7500 |  |  |  |  |  | 1600 | 29300 | 22000 | 3.9 | 13.75 | 
4 | Enfuvirtide [T20] |  |  |  |  |  |  |  |  |  |  |  |  |  |  |  |  | Inhibitory activity in time-of-addition assay (HIV-1SF33; added one hour after viral infection, T-20 5 μM): no inhibitory activity
5 | O=c1[nH]c(=O)n(COCc2ccccc2)c2c1CCCCC2c1ccccc1 (stereo not drawn) [BmPCP] | demonstrated antiviral activity | 1720 ± 370 | 1470 ± 430 | 1760 ± 230 | 1450 ± 210 | 1960 | 320 ± 150 | 250 ± 30 | 440 ± 170 | 530 ± 70 | 590 ± 340 | 340 | 90300 | 129000 | 84 | 266 | SI (Selectivity index = CC50/IC50) (HIV-1 SF33 [1]): 67; CC50 at 3 days [4]: 90000 to 165000 nM; SI (Selectivity index = CC50/IC50) (HIV-1 1617-1; 1617-1/PBMCs): 65; SI (Selectivity index = CC50/IC50) (HIV-1 1617-1; 1617-1/TZM-bl): 62; IC50 [5]: 1510 nM; CC90 at 3 days (XTT cytotoxicity assay; MT4 cells): 383000 ± 53500 nM; CC50 at 3 days (XTT cytotoxicity assay; PBMCs (non-stimulated), PBMC): 114000 ± 9380 nM; CC90 at 3 days (XTT cytotoxicity assay; PBMCs (non-stimulated), PBMC): 229000 ± 6400 nM; CC90 at 3 days (XTT cytotoxicity assay; TZM-bl cells): 208000 ± 8690 nM; CC50 (MT4 cells): 165000 nM; CC50 (TZM-bl cells): 90300 nM; SI (Selectivity index = CC50/IC50) (HIV-1 AH259): 282; SI (Selectivity index = CC50/IC50) (HIV-1 XJ0793): 361; SI (Selectivity index = CC50/IC50) (HIV-1 AH968): 205; SI (Selectivity index = CC50/IC50) (HIV-1 XJ257): 170; IC50 (HIV-1 XJ6291): 570 ± 20 nM; SI (Selectivity index = CC50/IC50) (HIV-1 XJ6291; primary isolate XJ6291, subtype B'/C, R5, PBMCs): 158; IC50, level over HIV-1 strains (HIV-1): low μM levels
6 | O=c1[nH]c(=O)n(Cc2ccccc2)c2c1CCCCC2c1ccccc1 (stereo not drawn) [BPCP] |  |  |  |  |  | 115000 |  |  |  |  |  | 9000 | 132000 | 180000 | 1.15 | 20 | 
